In BindingDB's records for doi:10.1021/jm060996+ (Merck Research Laboratories, 2006) one finds IC50 data, which are given here for 10 molecules.

The structures appear in SMILES notation. pIC50: −log10 of the molar value.

For the assay, the target named is Cannabinoid receptor 2 (Homo sapiens, UniProt P34972). The assay can be described thus: Inhibition of [3H]CP-55940 binding to human recombinant CB2 receptor in CHO cells.
Sequence of Cannabinoid receptor 2 (P34972 whole entry): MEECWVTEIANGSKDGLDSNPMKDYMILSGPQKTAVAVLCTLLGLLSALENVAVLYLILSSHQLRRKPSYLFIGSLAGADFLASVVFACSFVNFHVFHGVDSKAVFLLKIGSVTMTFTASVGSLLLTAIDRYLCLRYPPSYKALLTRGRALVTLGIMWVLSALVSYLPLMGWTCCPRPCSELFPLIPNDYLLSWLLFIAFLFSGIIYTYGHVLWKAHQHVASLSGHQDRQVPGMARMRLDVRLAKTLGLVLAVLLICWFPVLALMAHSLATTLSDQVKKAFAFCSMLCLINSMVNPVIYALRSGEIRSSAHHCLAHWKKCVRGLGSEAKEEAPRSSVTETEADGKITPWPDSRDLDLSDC
As to `C[C@H](NC(=O)C(C)(C)Oc1ccc(Cl)cc1)[C@@H](Cc1ccc(Cl)cc1)c1ccc(Cl)cc1` [(1S,2S)N-[2,3-bis(4-chlorophenyl)-1-methylpropyl]-2-(4-chlorophenyloxy)-2-methylpropanamide], the pIC50 was < 5.70.
To `CC(NC(=O)C(C)(C)Oc1ccc(Cl)cc1)C(Cc1ccc(Cl)cc1)c1ccc(Cl)cc1` (stereo not given) [N-[2,3-bis(4-chlorophenyl)-1-methylpropyl]-2-(4-chlorophenyloxy)-2-methylpropanamide] belongs 5.96; to `C[C@H](NC(=O)C(C)(C)Oc1cccc(Cl)c1)[C@@H](Cc1ccc(Cl)cc1)c1ccccc1` [N-[(1S,2S)-3-(4-chlorophenyl)-1-methyl-2-phenylpropyl]-2-(3-chlorophenyloxy)-2-methylpropanamide], 6.72; to `C[C@H](NC(=O)C(C)(C)Oc1ccccn1)[C@@H](Cc1ccc(Cl)cc1)c1ccccc1` [N-[(1S,2S)-3-(4-chlorophenyl)-1-methyl-2-phenyl-propyl]-2-(2-pyridyloxy)-2-methylpropanamide], 7.06.
To `C[C@H](NC(=O)C(C)(C)Oc1ccc(C(F)(F)F)cn1)[C@@H](Cc1ccc(Cl)cc1)c1ccccc1` [N-((2S,3S)-4-(4-chlorophenyl)-3-phenylbutan-2-yl)-2-methyl-2-(5-(trifluoromethyl)pyridin-2-yloxy)propanamide] belongs 6.85.
To `CC(NC(=O)C(C)(C)Oc1ccc(Cl)cc1)C(Cc1ccc(Cl)cc1)c1ccccc1` (stereo not given) [N-[3-(4-chlorophenyl)-1-methyl-2-phenylpropyl]-2-(4-chlorophenyloxy)-2-methylpropanamide] belongs 6.21; to `C[C@H](NC(=O)C(C)(C)Oc1ccc(Cl)cn1)[C@@H](Cc1ccc(Cl)cc1)c1ccccc1` [N-[(1S,2S)-3-(4-chlorophenyl)-1-methyl-2-phenylpropyl]-2-[(5-chloro-2-pyridin-2-yl)oxy]-2-methylpropanamide], 7.00; to `C[C@H](NC(=O)C(C)(C)Oc1cc(F)cc(F)c1)[C@@H](Cc1ccc(Cl)cc1)c1ccccc1` [N-((2S,3S)-4-(4-chlorophenyl)-3-phenylbutan-2-yl)-2-(3,5-difluorophenoxy)-2-methylpropanamide], 6.70.
On to `C[C@H](NC(=O)C(C)(C)Oc1cccc(F)c1)[C@@H](Cc1ccc(Cl)cc1)c1ccccc1` [N-[(1S,2S)-3-(4-chlorophenyl)-1-methyl-2-phenylpropyl]-2-(3-fluorophenyloxy)-2-methylpropanamide], for which the negative-log IC50 (pIC50) was 6.54.
To `C[C@H](NC(=O)C(C)(C)Oc1ccccc1)[C@@H](Cc1ccc(Cl)cc1)c1ccccc1` [N-((2S,3S)-4-(4-chlorophenyl)-3-phenylbutan-2-yl)-2-methyl-2-phenoxypropanamide] belongs 6.35.
